Source: patent US20240409557A1, “5,6-FUSED AND 6,6-FUSED BICYCLIC ALCOHOLS AND ETHERS AND COMPOSITIONS FOR USE AS 15-PROSTAGLANDIN DEHYDROGENASE MODULATORS” (AMGEN INC., priority 2023, published 2024)

Legend:
[1] = system: DSS-induced colitis in C57BL/6 female mice; experiment: In vivo mouse DSS study - colon length; details: for Colon length Mean: oral gavage, day 10; for Recovery % (vs vehicle) / Reduction % (vs naïve): colon length
Protocol: In this study, 12-week-old C57BL/6 female mice (Taconic, the Cambridge City) were supplemented with 2.5% DSS (MP Biomedicals, MW 36,000-50,000) in drinking water for days 0-7, and then switched to normal drinking water beginning on day 7 and continued through day 10. Mice were treated once/twice daily by oral gavage with different compounds of Formula (A) (e.g., B15S, B15R, B30R, or B41R) in different dosing levels or with vehicle solution of 2% HPMC, 1% Tween 80 (w/v) in DI water starting on day 0. Mice were sacrificed on day 10 for assessment of colon length. The DSS-induced model of colitis is a widely used animal model for studying the pathogenesis of and potential treatments for UC, which is a primary form of IBD. DSS water intake causes colonic mucosa injury and erosion, gland loss, and infiltration of proinflammatory immune cells in the colon tissue, followed by mucosal repair and tissue remodeling. This is manifested by a shortened colon, the degree of which correlates well with the severity of mucosal injury in this mouse model of DSS-induced experimental colitis.

15-PGDH in A549 cells = target: T1, 15-PGDH in A549 cells (Homo sapiens, UniProt P15428); experiment: A549 cellular 15-PGDH assay (PGE2 accumulation, HTRF); type: cell-based; details: interleukin-stimulated, inhibitor 24 hrs, PGE2 by competitive HTRF, read-out: A549 Cell Assay IC50
T1 construct: endogenous in cells; host or cells: A549
T1 sequence (P15428 1-266): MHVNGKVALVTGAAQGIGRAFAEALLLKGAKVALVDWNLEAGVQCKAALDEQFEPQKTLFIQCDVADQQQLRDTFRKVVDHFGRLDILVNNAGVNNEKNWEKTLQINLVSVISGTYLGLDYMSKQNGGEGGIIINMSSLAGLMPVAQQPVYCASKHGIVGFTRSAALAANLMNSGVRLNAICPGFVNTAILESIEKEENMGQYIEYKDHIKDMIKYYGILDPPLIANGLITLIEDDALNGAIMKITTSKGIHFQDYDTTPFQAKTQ
Procedure, shortened: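 IL-13-stimulated A549 lung carcinoma cells released PGE2, which was measured in supernatants by competitive HTRF with a Eu-cryptate anti-PGE2 antibody and labelled PGE2. Signal falls as PGE2 rises. IC50 values were derived from the binding data.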

[2] = target: T2, human recombinant 15-PGDH (Homo sapiens, UniProt P15428); experiment: Recombinant 15-PGDH enzymatic inhibition assay (PGDH-Lumi, NADH signal); type: biochemical; details: for IC50: recombinant 15-PGDH, 15 min pre-incubation, 60 min reaction with PGE2 and NAD+, NADH signal
T2 sequence (P15428 1-266): T1 sequence (P15428 1-266)
Procedure, shortened: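 Recombinant 15-PGDH pre-incubated 15 min at room temperature with compound (22 concentrations, 2-fold dilutions) in 50 mM Tris pH 7.5, 0.01% Tween-20, […].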

[3] = system: DSS-induced colitis in C57BL/6 mice; experiment: In vivo mouse DSS study - histopathological analysis of colon; details: versus DSS + vehicle
Protocol: Histopathological analysis was performed on the […] mice from the DSS study described above. Analysis was performed on mice from the B15R, B30R, or B41R groups. Briefly, mouse colon tissues were collected at necropsy, flushed with PBS, manipulated intact into individual modified Swiss rolls, placed into separate tissue cassettes and fixed for approximately 24 hours by immersion in 10% neutral buffered formalin followed by transfer to […]. Fixed tissues were routinely processed, paraffin-embedded, sectioned, mounted on glass slides and hematoxylin and eosin stained. Glass slides were scanned and digital images were accessed for histopathology evaluation. Prior to histopathology assessment, metadata for all digital images reviewed was exported from a digital pathology platform database into an Excel spreadsheet, followed by assignment of each digital image with a random number (greater than 0 and less than 1) using the RAND function in Excel. From smallest to largest random number assigned, each digital image was retrieved for evaluation using only the RTLIMS Inventory Code as the unique identifier for each digital image. Each digital image was individually reviewed without knowledge of treatment group (blinded/masked evaluation), and with the slide label image hidden when viewing digital images. […] Scoring of tissues for DSS-induced colitis was performed using a scoring system and criteria modified and adapted from BolderBioPATH, Inc./Inotiv. Ordinal data (histopathology scores) were analyzed using a non-parametric Kruskal-Wallis one-way analysis of variance test followed by a Dunn's multiple comparison test (GraphPad Prism).
The following scoring systems were used to provide histological scores: […]

Compound	Colon length Mean ([1]; 0.625 mpk, BID)	Colon length Mean ([1]; 1.25 mpk, QD)	Colon length Mean ([1]; 2.5 mpk, BID)	Colon length Mean ([1]; 5 mpk, QD)	Colon length Mean ([1]; 20 mpk, QD)	Recovery % (vs vehicle) ([1]; 0.625 mpk, BID)	Reduction % (vs naïve) ([1]; 0.625 mpk, BID)	Recovery % (vs vehicle) ([1]; 1.25 mpk, QD)	Reduction % (vs naïve) ([1]; 1.25 mpk, QD)	Recovery % (vs vehicle) ([1]; 2.5 mpk, BID)	Reduction % (vs naïve) ([1]; 2.5 mpk, BID)	Recovery % (vs vehicle) ([1]; 5 mpk, QD)	Reduction % (vs naïve) ([1]; 5 mpk, QD)	Recovery % (vs vehicle) ([1]; 20 mpk, QD)	Reduction % (vs naïve) ([1]; 20 mpk, QD)	IC50 (15-PGDH in A549 cells)	IC50 [2]	erosion scores ([3]; all doses evaluated)	inflammation scores ([3]; all doses evaluated)	sum of histopathology scores ([3]; all doses evaluated)	further results
Cn1cc2cc(-c3ccc4cc([C@@H](O)C5CCOCC5)sc4n3)cnc2n1 [Compound B15S, (S)-(6-(2-methyl-2H-pyrazolo[3,4-b]pyridin-5-yl)thieno[2,3-b]pyridin-2-yl)(tetrahydro-2H-pyran-4-yl)methanol]	6.51 cm	6.60 cm	6.52 cm	6.90 cm	6.97 cm	13.4%	24.8%	17.0%	23.7%	13.7%	24.7%	29.0%	20.3%	31.9%	19.5%	0.499 nM	150 nM				colon length comparing to vehicle group ([1]; 5 mg/kg and 20 mg/kg once daily): significant improvement of colon length; times less potent than B15R in the biochemical assay ([2]; S-enantiomer versus R-enantiomer): around 200
Cn1nnc2cc(-c3ccc4cc([C@H](O)C5CCOCC5)sc4n3)cnc21 (single isomer, unassigned) [Compound B41R]																2.16 nM	0.955 nM	decreased severity	decreased severity	decreased severity	gland loss scores ([3]; at 0.1 mg/kg QD and >0.625 mg/kg QD): decreased severity; colon length comparing to vehicle group ([1]; 2.5 mg/kg and 10 mg/kg daily): significant improvement of colon length; Colon length Mean ([1]; 0.1 mpk, QD): 7.0 cm; Colon length Mean ([1]; 0.25 mpk, QD): 6.8 cm; Colon length Mean ([1]; 0.625 mpk, QD): 7.3 cm; Colon length Mean ([1]; 2.5 mpk, QD): 7.3 cm; Colon length Mean ([1]; 10 mpk, QD): 7.9 cm; Recovery % (vs vehicle) ([1]; 0.1 mpk, QD): 25.46%; Reduction % (vs naïve) ([1]; 0.1 mpk, QD): 14.63%; Recovery % (vs vehicle) ([1]; 0.25 mpk, QD): 11.18%; Reduction % (vs naïve) ([1]; 0.25 mpk, QD): 17.44%; Recovery % (vs vehicle) ([1]; 0.625 mpk, QD): 40.99%; Reduction % (vs naïve) ([1]; 0.625 mpk, QD): 11.59%; Recovery % (vs vehicle) ([1]; 2.5 mpk, QD): 45.34%; Reduction % (vs naïve) ([1]; 2.5 mpk, QD): 10.73%; Recovery % (vs vehicle) ([1]; 10 mpk, QD): 82.06%; Reduction % (vs naïve) ([1]; 10 mpk, QD): 3.52%
Cn1cc2cc(-c3ccc4cc([C@H](O)C5CC(F)(F)C5)sc4n3)cnc2n1 (single isomer, unassigned) [Compound B30R]	7.622 cm	7.733 cm	7.780 cm	8.360 cm	8.188 cm	56.343%	9.413%	62.467%	8.093%	65.039%	7.538%	97.008%	0.645%	87.5%	2.265%	0.233 nM	0.159 nM	decreased severity	decreased severity	decreased severity	gland loss scores ([3]; at 0.625 mg/kg BID, 1.25 mg/kg QD, 2.5 mg/kg BID and 5 mg/kg QD): decreased severity; Colon length Mean ([1]; 10 mpk, QD): 8.110 cm; Recovery % (vs vehicle) ([1]; 10 mpk, QD): 83.228%; Reduction % (vs naïve) ([1]; 10 mpk, QD): 3.616%; colon length comparing to vehicle group ([1]; different doses daily): significant improvement of colon length
Cn1cc2cc(-c3ccc4cc([C@H](O)C5CCOCC5)sc4n3)cnc2n1 (single isomer, unassigned) [Compound B15R]	7.6 cm	7.84 cm	8.09 cm	7.89 cm		42.29%	14.97%	57.64%	12.28%	63.43%	8.09%	54.80%	11.72%			0.561 nM	0.401 nM	decreased severity	decreased severity	decreased severity	gland loss scores ([3]; all doses evaluated): decreased severity; colon length comparing to vehicle group ([1]; different doses daily): significant improvement of colon length
